Results published in patent US8618153B2, “Hepatitis C virus inhibitors” (Bristol-Myers Squibb Company, priority 2009, dated 2013).
Like-named read-outs stand apart in the source and are kept apart here.

Tested on: HCV 1b genotype
Assay: HCV Replicon assay (HCV-neo replicon cells), 1b genotype
Format: cell-based
Details: Hepatitis C virus, HCV 1b genotype replicon, read-out: 1b EC50 (in μM or range)
Method: An HCV Replicon assay was utilized in the present disclosure, and was prepared, conducted and validated as described in commonly owned PCT/US2006/022197 and in O'Boyle et al., Antimicrob. Agents Chemother., 49(4):1346-1353 (April 2005). Assay methods incorporating luciferase reporters have also been used as described (Apath.com).
HCV-neo replicon cells and replicon cells containing mutations in the NS5A region were used to test the currently described family of compounds. The compounds were determined to have more than 10-fold less inhibitory activity on cells containing mutations than wild-type cells. Thus, the compounds of the present disclosure can be effective in inhibiting the function of the HCV NS5A protein and are understood to be as effective in combinations as previously described in application PCT/US2006/022197 and commonly owned WO 04/014852. Further, the compounds of the present disclosure can be effective against the HCV 1b genotype. It should also be understood that the compounds of the present disclosure can inhibit multiple genotypes of HCV. […] In one embodiment compounds of the present disclosure are inhibitory versus 1a, 1b, 2a, 2b, 3a, 4a, and 5a genotypes. […] The compounds of the present disclosure may inhibit HCV by mechanisms in addition to or other than NS5A inhibition. In one embodiment the compounds of the present disclosure inhibit HCV replicon and in another embodiment the compounds of the present disclosure inhibit NS5A.

| SMILES | EC50 (value given as range class) [µM] | EC50 (numeric value) [µM] |
| --- | --- | --- |
| COC(=O)N[C@H](C(=O)N1CCC[C@H]1c1ncc(-c2cnc(-c3ncc(-c4cnc([C@@H]5CCCN5C(=O)[C@@H](NC(=O)OC)[C@@H](C)OC)[nH]4)s3)s2)[nH]1)[C@@H](C)OC [Example 19, Methyl ((1S,2R)-2-methoxy-1-(((2S)-2-(4-(5′-(2-((2S)-1-(N-(methoxycarbonyl)-O-methyl-L-threonyl)-2-pyrrolidinyl)-1H-imidazol-4-yl)-2,2′-bi-1,3-thiazol-5-yl)-1H-imidazol-2-yl)-1-pyrrolidinyl)carbonyl)propyl)carbamate] | 0.001 to 0.01 |  |
| COC(=O)N[C@@H](C)C(=O)N1CCC[C@H]1c1ncc(-c2cnc(-c3ncc(-c4cnc([C@@H]5CCCN5C(=O)[C@H](C)NC(=O)OC)[nH]4)s3)s2)[nH]1 [Example 20, Methyl ((1S)-2-((2S)-2-(4-(5′-(2-((2S)-1-(N-(methoxycarbonyl)-L-alanyl)-2-pyrrolidinyl)-1H-imidazol-4-yl)-2,2′-bi-1,3-thiazol-5-yl)-1H-imidazol-2-yl)-1-pyrrolidinyl)-1-methyl-2-oxoethyl)carbamate] | 0.001 to 0.01 |  |
| COC(=O)N[C@@H](C(=O)N1CCC[C@H]1c1nc(-c2ncc(-c3cccc(-c4cnc([C@@H]5CCCN5C(=O)[C@H](NC(=O)OC)c5ccccc5)[nH]4)c3)o2)c[nH]1)c1ccccc1 [Example 21, Methyl ((1R)-2-((2S)-2-(4-(3-(2-(2-((2S)-1-((2R)-2-((methoxycarbonyl)amino)-2-phenylacetyl)-2-pyrrolidinyl)-1H-imidazol-4-yl)-1,3-oxazol-5-yl)phenyl)-1H-imidazol-2-yl)-1-pyrrolidinyl)-2-oxo-1-phenylethyl)carbamate] | < 0.001 |  |
| CN(C)[C@@H](C(=O)N1CCC[C@H]1c1nc(-c2ncc(-c3cccc(-c4cnc([C@@H]5CCCN5C(=O)[C@@H](c5ccccc5)N(C)C)[nH]4)c3)o2)c[nH]1)c1ccccc1 [Example 22, (1R)-2-((2S)-2-(4-(3-(2-(2-((2S)-1-((2R)-2-(Dimethylamino)-2-phenylacetyl)-2-pyrrolidinyl)-1H-imidazol-4-yl)-1,3-oxazol-5-yl)phenyl)-1H-imidazol-2-yl)-1-pyrrolidinyl)-N,N-dimethyl-2-oxo-1-phenylethanamine] | 0.001 to 0.01 |  |
| COC(=O)N[C@@H](C(=O)N[C@@H](C)c1ncc(-c2cccc(-c3cnc(-c4c[nH]c([C@@H]5CCCN5C(=O)[C@H](NC(=O)OC)c5ccccc5)n4)o3)c2)[nH]1)c1ccccc1 [Example 23, Methyl ((1R)-2-((2S)-2-(4-(5-(3-(2-((1S)-1-(((2R)-2-((methoxycarbonyl)amino)-2-phenylacetyl)amino)ethyl)-1H-imidazol-4-yl)phenyl)-1,3-oxazol-2-yl)-1H-imidazol-2-yl)-1-pyrrolidinyl)-2-oxo-1-phenylethyl) carbamate] | 0.001 to 0.01 |  |
| C[C@H](NC(=O)[C@@H](c1ccccc1)N(C)C)c1ncc(-c2cccc(-c3cnc(-c4c[nH]c([C@@H]5CCCN5C(=O)[C@@H](c5ccccc5)N(C)C)n4)o3)c2)[nH]1 [Example 24, (2R)-2-(Dimethylamino)-N-((1S)-1-(4-(3-(2-(2-((2S)-1-((2R)-2-(dimethylamino)-2-phenylacetyl)-2-pyrrolidinyl)-1H-imidazol-4-yl)-1,3-oxazol-5-yl)phenyl)-1H-imidazol-2-yl)ethyl)-2-phenylacetamide] |  | 0.00181 |
| COC(=O)N[C@@H](C(=O)N1CCC[C@H]1c1nc(-c2ncc(-c3ccc(-c4cnc([C@@H]5CCCN5C(=O)[C@H](NC(=O)OC)c5ccccc5)[nH]4)cc3)o2)c[nH]1)c1ccccc1 [Example 25, Methyl ((1R)-2-((2S)-2-(4-(4-(2-(2-((2S)-1-((2R)-2-((methoxycarbonyl)amino)-2-phenylacetyl)-2-pyrrolidinyl)-1H-imidazol-4-yl)-1,3-oxazol-5-yl)phenyl)-1H-imidazol-2-yl)-1-pyrrolidinyl)-2-oxo-1-phenylethyl)carbamate] | 0.001 to 0.01 |  |
| CN(C)[C@@H](C(=O)N1CCC[C@H]1c1nc(-c2ncc(-c3ccc(-c4cnc([C@@H]5CCCN5C(=O)[C@@H](c5ccccc5)N(C)C)[nH]4)cc3)o2)c[nH]1)c1ccccc1 [Example 26, (1R)-2-((2S)-2-(4-(4-(2-(2-((2S)-1-((2R)-2-(Dimethylamino)-2-phenylacetyl)-2-pyrrolidinyl)-1H-imidazol-4-yl)-1,3-oxazol-5-yl)phenyl)-1H-imidazol-2-yl)-1-pyrrolidinyl)-N,N-dimethyl-2-oxo-1-phenylethanamine] | 0.001 to 0.01 |  |
| COC(=O)N[C@@H](C(=O)N1CCC[C@H]1c1ncc(-c2ccc(-c3cnc(-c4c[nH]c([C@@H]5CCCN5C(=O)OCc5ccccc5)n4)o3)cc2)[nH]1)c1ccccc1 [Example 27, Benzyl (2S)-2-(4-(5-(4-(2-((2S)-1-((2R)-2-((methoxycarbonyl)amino)-2-phenylacetyl)-2-pyrrolidinyl)-1H-imidazol-4-yl)phenyl)-1,3-oxazol-2-yl)-1H-imidazol-2-yl)-1-pyrrolidinecarboxylate] |  | 0.00671 |
| CN(C)[C@@H](C(=O)N1CCC[C@H]1c1ncc(-c2ccc(-c3cnc(-c4c[nH]c([C@@H]5CCCN5C(=O)OCc5ccccc5)n4)o3)cc2)[nH]1)c1ccccc1 [Example 28, Benzyl (2S)-2-(4-(5-(4-(2-((2S)-1-((2R)-2-((N,N-dimethyl)amino)-2-phenylacetyl)-2-pyrrolidinyl)-1H-imidazol-4-yl)phenyl)-1,3-oxazol-2-yl)-1H-imidazol-2-yl)-1-pyrrolidinecarboxylate] | 0.001 to 0.01 |  |
| COC(=O)N[C@@H](C(=O)N1CCC[C@H]1c1ncc(C#CC#Cc2cnc([C@@H]3CCCN3C(=O)[C@H](NC(=O)OC)c3ccccc3)[nH]2)[nH]1)c1ccccc1 [Example 29, Dimethyl (1R,1′R)-2,2′-((2S,2′S)-2,2′-(5,5′-(buta-1,3-diyne-1,4-diyl)bis(1H-imidazole-5,2-diyl))bis(pyrrolidine-2,1-diyl))bis(2-oxo-1-phenylethane-2,1-diyl)dicarbamate] | < 0.001 |  |
| O=C([C@@H](c1ccccc1)N1CCCCC1)N1CCC[C@H]1c1ncc(C#CC#Cc2cnc([C@@H]3CCCN3C(=O)[C@@H](c3ccccc3)N3CCCCC3)[nH]2)[nH]1 [Example 30, (2R,2′R)-1,1′-((2S,2′S)-2,2′-(5,5′-(Buta-1,3-diyne-1,4-diyl)bis(1H-imidazole-5,2-diyl))bis(pyrrolidine-2,1-diyl))bis(2-phenyl-2-(piperidin-1-yl)ethanone)] | < 0.001 |  |
| COC(=O)N[C@H](C(=O)N1CCC[C@H]1c1ncc(C#CC#Cc2cnc([C@@H]3CCCN3C(=O)[C@@H](NC(=O)OC)C(C)C)[nH]2)[nH]1)C(C)C [Example 31, Dimethyl (2S,2′S)-1,1′-((2S,2′S)-2,2′-(5,5′-(buta-1,3-diyne-1,4-diyl)bis(1H-imidazole-5,2-diyl))bis(pyrrolidine-2,1-diyl))bis(3-methyl-1-oxobutane-2,1-diyl)dicarbamate] | < 0.001 |  |
| COC(=O)N[C@@H](C)C(=O)N1CCC[C@H]1c1ncc(C#CC#Cc2cnc([C@@H]3CCCN3C(=O)[C@H](C)NC(=O)OC)[nH]2)[nH]1 [Example 32, Dimethyl (2S,2′S)-1,1′-((2S,2′S)-2,2′-(5,5′-(buta-1,3-diyne-1,4-diyl)bis(1H-imidazole-5,2-diyl))bis(pyrrolidine-2,1-diyl))bis(1-oxopropane-2,1-diyl)dicarbamate] | 0.01 to 10 |  |
